One block for each compound: values may come before it. The source made the active and inactive calls. The rule behind the calls is not given here.
Legend:
Histone deacetylase 1 [1] = molecular target: T1, Histone deacetylase 1 (Homo sapiens, UniProt Q13547); assay: Inhibition of recombinant full length C-terminal His/Flag-tagged human HDAC1 (1 to 482 residues) using Z-Lys(Ac)-AMC as substrate preincubated for 90 mins followed by trypsin addition and measured after 30 mins by fluorescence based microplate reader analysis
[2] = molecular target: T2, Protein deacetylase HDAC6 (Homo sapiens, UniProt Q9UBN7); assay: Inhibition of recombinant full length N-terminal GST-tagged human HDAC6 (1 to 1215 residues) using Z-Lys(Ac)-AMC as substrate preincubated for 90 mins followed by trypsin addition and measured after 30 mins by fluorescence based microplate reader analysis
T2 sequence (Q9UBN7 whole entry): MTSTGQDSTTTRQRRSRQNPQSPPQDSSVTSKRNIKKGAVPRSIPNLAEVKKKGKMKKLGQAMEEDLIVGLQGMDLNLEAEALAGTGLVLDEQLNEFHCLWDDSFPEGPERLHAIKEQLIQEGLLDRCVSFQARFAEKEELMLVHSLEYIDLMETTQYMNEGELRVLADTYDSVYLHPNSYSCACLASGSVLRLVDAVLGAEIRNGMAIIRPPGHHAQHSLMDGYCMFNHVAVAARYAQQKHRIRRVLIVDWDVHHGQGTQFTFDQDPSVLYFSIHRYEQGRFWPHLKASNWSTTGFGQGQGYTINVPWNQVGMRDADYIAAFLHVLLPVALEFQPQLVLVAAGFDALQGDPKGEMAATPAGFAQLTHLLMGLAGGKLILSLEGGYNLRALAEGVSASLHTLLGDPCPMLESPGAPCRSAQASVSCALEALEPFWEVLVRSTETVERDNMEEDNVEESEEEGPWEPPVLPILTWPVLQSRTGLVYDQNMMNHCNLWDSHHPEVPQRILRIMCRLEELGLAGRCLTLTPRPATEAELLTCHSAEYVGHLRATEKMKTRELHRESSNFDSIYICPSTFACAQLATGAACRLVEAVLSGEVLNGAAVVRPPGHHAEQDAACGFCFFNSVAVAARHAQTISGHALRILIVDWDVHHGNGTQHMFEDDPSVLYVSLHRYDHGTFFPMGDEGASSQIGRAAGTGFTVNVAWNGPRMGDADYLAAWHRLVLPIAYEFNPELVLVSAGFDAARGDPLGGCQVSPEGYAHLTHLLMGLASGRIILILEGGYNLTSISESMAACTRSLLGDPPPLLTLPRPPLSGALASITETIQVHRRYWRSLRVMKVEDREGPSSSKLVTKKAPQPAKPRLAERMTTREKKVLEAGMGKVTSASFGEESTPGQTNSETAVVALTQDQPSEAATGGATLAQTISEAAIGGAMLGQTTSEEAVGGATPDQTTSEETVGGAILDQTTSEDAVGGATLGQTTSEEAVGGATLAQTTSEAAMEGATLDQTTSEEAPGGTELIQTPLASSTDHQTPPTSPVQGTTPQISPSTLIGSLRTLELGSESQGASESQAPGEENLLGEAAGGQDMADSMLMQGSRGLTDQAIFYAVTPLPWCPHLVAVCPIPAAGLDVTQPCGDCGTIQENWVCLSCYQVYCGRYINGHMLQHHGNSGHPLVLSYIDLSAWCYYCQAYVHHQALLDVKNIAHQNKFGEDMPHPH

[3] = molecular target: T3, Protein deacetylase HDAC6 (Homo sapiens) (UniProt Q9UBN7); assay: Induction of HDAC6 degradation in human HL-60 cells at 0.1 to 10 uM after 6 hrs by Western blot analysis; assay type: cell-based; settings: dose 0.1-10 µM
T3 sequence (whole entry): T2 sequence (Q9UBN7 whole entry)

[4] = molecular target: T3, Protein deacetylase HDAC6 (Homo sapiens); assay: Induction of HDAC6 degradation in human HL-60 cells assessed as hyperacetylation of alpha-tubulin at 0.1 to 10 uM after 6 hrs by Western blot analysis; assay type: cell-based; settings: dose 0.1-10 µM
Histone deacetylase 1 [5] = molecular target: T1, Histone deacetylase 1; assay: Induction of HDAC1 degradation in human HL-60 cells assessed as hyperacetylation of histone H3 at 0.1 to 10 uM after 6 hrs by Western blot analysis; assay type: cell-based; settings: dose 0.1-10 µM
[6] = molecular target: T3, Protein deacetylase HDAC6 (Homo sapiens); assay: Induction of Hitbit-fused HDAC6 degradation in human K562 cells at 1 uM after 5.5 to 7.5 hrs by NanoGlo HiBit lytic assay; assay type: cell-based; settings: time 5.5-7.5 hrs
[7] = molecular target: T3, Protein deacetylase HDAC6 (Homo sapiens); assay: Induction of HDAC6 degradation in human U-266 cells at 100 to 1000 nM incubated for 24 hrs by Western blot analysis; assay type: cell-based; settings: dose 100-1000 nM
[8] = molecular target: T3, Protein deacetylase HDAC6 (Homo sapiens); assay: Induction of HDAC6 degradation in human U-266 cells assessed as hyperacetylation of alpha-tubulin at 100 to 1000 nM incubated for 24 hrs by Western blot analysis; assay type: cell-based; settings: dose 100-1000 nM
[9] = molecular target: T3, Protein deacetylase HDAC6 (Homo sapiens); assay: Induction of HDAC6 degradation in human HL-60 cells assessed as maximum degradation after 6 hrs by Western immunoassay; assay type: cell-based
[10] = molecular target: T3, Protein deacetylase HDAC6 (Homo sapiens); assay: Induction of HDAC6 degradation in human HL-60 cells at 100 nM after 3 hrs by fluorescence microscopy analysis; assay type: cell-based
[11] = molecular target: T3, Protein deacetylase HDAC6 (Homo sapiens); assay: Induction of HDAC6 degradation in human HL-60 cells at 100 nM after 6 hrs by fluorescence microscopy analysis; assay type: cell-based
[12] = molecular target: T3, Protein deacetylase HDAC6 (Homo sapiens); assay: Induction of HDAC6 degradation in human HL-60 cells at 1 uM after 3 to 6 hrs by fluorescence microscopy analysis; assay type: cell-based; settings: time 3-6 hrs
[13] = molecular target: T3, Protein deacetylase HDAC6 (Homo sapiens); assay: Induction of HDAC6 degradation in human HL-60 cells assessed as hyperacetylation of histone H3 at 1 uM after 24 hrs; assay type: cell-based
MOLM-13 [14] = assay: Cytotoxicity against human MOLM-13 cells assessed as reduction in cell viability incubated for 72 hrs by ATP based Celltiter-glo luminescent assay; assay type: functional; settings: MOLM-13, 72 h
MOLM-13 [15] = assay: Induction of apoptosis in human MOLM-13 cells after 48 hrs by Annexin-V and PI staining based flow cytometry assay; assay type: functional, cell-based; settings: dose 8-24 µM, DDE = dose-dependent effect
MOLM-13 [16] = assay: Induction of cell cycle arrest in human MOLM-13 cells assessed as increase in sub-G1 phase population incubated for 48 hrs by PI staining based flow cytometry analysis; assay type: functional; settings: dose 8-24 µM, DDE = dose-dependent effect
MOLM-13 [17] = assay: Induction of cell cycle arrest in human MOLM-13 cells assessed as reduction in G2/M phase population incubated for 48 hrs by PI staining based flow cytometry analysis; assay type: functional; settings: dose 8-24 µM, DDE = dose-dependent effect
MOLM-13 [18] = assay: Induction of cell cycle arrest in human MOLM-13 cells assessed as increase in sub-G1 phase population at 8 uM incubated for 48 hrs by PI staining based flow cytometry analysis (reference value: […]); assay type: functional
MOLM-13 [19] = assay: Induction of cell cycle arrest in human MOLM-13 cells assessed as increase in sub-G1 phase population at 16 uM incubated for 48 hrs by PI staining based flow cytometry analysis (reference value: […]); assay type: functional
MOLM-13 [20] = assay: Induction of cell cycle arrest in human MOLM-13 cells assessed as increase in sub-G1 phase population at 24 uM incubated for 48 hrs by PI staining based flow cytometry analysis (reference value: […]); assay type: functional
[21] = molecular target: T2, Protein deacetylase HDAC6; assay: Induction of HDAC6 degradation in human HL-60 cells after 6 hrs by Western immunoassay; assay type: cell-based
[22] = molecular target: T2, Protein deacetylase HDAC6; assay: Induction of HDAC6 degradation in human HL-60 cells assessed as hyperacetylation of alpha-tubulin after 6 hrs by Western immunoassay; assay type: cell-based

T1 sequence (Q13547 whole entry, the tested form may be a part): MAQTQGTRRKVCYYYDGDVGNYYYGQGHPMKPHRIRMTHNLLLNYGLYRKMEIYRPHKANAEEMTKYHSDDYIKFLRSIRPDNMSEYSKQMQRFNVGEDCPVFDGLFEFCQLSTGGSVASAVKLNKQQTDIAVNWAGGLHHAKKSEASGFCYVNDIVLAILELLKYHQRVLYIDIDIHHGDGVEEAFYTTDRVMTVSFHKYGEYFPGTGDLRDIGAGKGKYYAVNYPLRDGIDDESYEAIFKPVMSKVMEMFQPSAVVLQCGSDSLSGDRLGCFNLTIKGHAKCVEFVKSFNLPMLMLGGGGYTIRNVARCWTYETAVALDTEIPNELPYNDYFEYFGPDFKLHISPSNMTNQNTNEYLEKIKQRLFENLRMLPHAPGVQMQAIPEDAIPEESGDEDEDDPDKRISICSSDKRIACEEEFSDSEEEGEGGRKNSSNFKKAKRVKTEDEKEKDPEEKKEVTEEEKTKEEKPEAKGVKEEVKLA

IC50 (Histone deacetylase 1 [1]): 186 nM
IC50 [2]: 15 nM
SMILES: O=C(CCCCCCNC(=O)c1ccc(NC(=O)CCOCCOCCOCCOCCNC(=O)CNc2cccc3c2C(=O)N(C2CCC(=O)NC2=O)C3=O)cc1)NO (stereo not drawn)

IC50 (Histone deacetylase 1 [1]): 1420 nM
IC50 [2]: 1420 nM
SMILES: Cc1nc2cc(NC(=O)CCOCCOCCOCCOCCNC(=O)CNc3cccc4c3C(=O)N(C3CCC(=O)NC3=O)C4=O)ccc2n1Cc1ccc(C(=O)NO)cc1F (stereo not drawn)

IC50 (Histone deacetylase 1 [1]): 155 nM
IC50 [2]: 12 nM
SMILES: O=C(CCCCCCNC(=O)c1ccc(NC(=O)COCCNC(=O)COc2cccc3c2C(=O)N(C2CCC(=O)NC2=O)C3=O)cc1)NO (stereo not drawn)

Activity [3]: Active
Activity [4]: Active
Activity (Histone deacetylase 1 [5]): Active
Activity [6]: Active
Activity [7]: Active
Activity [8]: Active
Emax [9]: 84.5%
Activity [10]: Active
Activity [11]: Active
Activity [12]: Active
Activity [13]: Active
SMILES: O=C(CCCCCCNC(=O)c1ccc(NC(=O)CCCCCCCNC(=O)COc2cccc3c2C(=O)N(C2CCC(=O)NC2=O)C3=O)cc1)NO (stereo not drawn)
IC50 (MOLM-13 [14]): 17.4 µM
Activity (MOLM-13 [15]): Dde
Activity (MOLM-13 [16]): Dde
Activity (MOLM-13 [17]): Dde
Activity (MOLM-13 [18]): 7.5%
Activity (MOLM-13 [19]): 9.9%
Activity (MOLM-13 [20]): 13.4%

IC50 (Histone deacetylase 1 [1]): 161 nM
IC50 [2]: 17 nM
SMILES: O=C(CCCCCCNC(=O)c1ccc(NC(=O)CCOCCOCCOCCNC(=O)COc2cccc3c2C(=O)N(C2CCC(=O)NC2=O)C3=O)cc1)NO (stereo not drawn)

Activity [3]: Active
SMILES: O=C(CCCCCCNC(=O)c1ccc(NC(=O)COCCOCCNC(=O)COc2cccc3c2C(=O)N(C2CCC(=O)NC2=O)C3=O)cc1)NO (stereo not drawn)

IC50 (Histone deacetylase 1 [1]): 208 nM
IC50 [2]: 20.8 nM
SMILES: O=C(CCCCCCNC(=O)c1ccc(NC(=O)CCOCCOCCOCCOCCNC(=O)COc2cccc3c2C(=O)N(C2CCC(=O)NC2=O)C3=O)cc1)NO (stereo not drawn)

IC50 (Histone deacetylase 1 [1]): 1310 nM
IC50 [2]: 1310 nM
SMILES: Cc1nc2cc(NC(=O)CCOCCOCCOCCNC(=O)COc3cccc4c3C(=O)N(C3CCC(=O)NC3=O)C4=O)ccc2n1Cc1ccc(C(=O)NO)cc1F (stereo not drawn)

IC50 (Histone deacetylase 1 [1]): 1490 nM
IC50 [2]: 1490 nM
SMILES: Cc1nc2cc(NC(=O)CCOCCOCCOCCOCCNC(=O)COc3cccc4c3C(=O)N(C3CCC(=O)NC3=O)C4=O)ccc2n1Cc1ccc(C(=O)NO)cc1F (stereo not drawn)

IC50 (Histone deacetylase 1 [1]): 647 nM
IC50 [2]: 647 nM
Activity [3]: Active
Activity [4]: Active
Activity [6]: Active
Activity [7]: Active
Activity [8]: Active
DC50 [21]: 19.4 nM
Emax [9]: 92.8%
EC50 [22]: 5.45 µM
SMILES: Cc1nc2cc(NC(=O)CCCCCCCNC(=O)COc3cccc4c3C(=O)N(C3CCC(=O)NC3=O)C4=O)ccc2n1Cc1ccc(C(=O)NO)cc1F (stereo not drawn)
